Assay results as given in patent publication EP1945226B1, “DRUG COMBINATION WITH ANALGESIC, ANTI-INFLAMMATORY AND DECONGESTIVE ACTIVITY” (Voicu, A. Victor, priority 2005, dated 2006).

System: edema induced by carrageenan
Assay: experimental inflammation model with carrageenan at the rats' posterior paws
Assay type: in vivo, Wistar rats
Details: rat, administered independently
Protocol: The anti-inflammatory effect was found via the experimental inflammation model with carrageenan at the rats' posterior paws. For the experimental research, we used Wistar rats with 120±10g weight, in groups of 9 animals.
1% carrageenan saline solution was administered by subcutaneous injection (0.1 mL volume) In the posterior paw.
The anti-inflammatory combination was administered 1 hour before carrageenan. The posterior paws' dimensions were measured before and 3 hours after carrageenan solution injection. The contra lateral paw was used as reference. The following combination was used for the experiments:
This (combination, formulated as) suspension was administered orally (gavage), in dosage of 0.2 mL/100 g rat body weight.
Acetylsalicylic acid was administered independently, in doses of 250 mg/kg body weight, equivalent to the quantity used in the combination. Chlorpheniramine was also (independently) administered by oral route, as reference, in doses equivalent to 6 mg/kg body weight.

For `CN(C)CCC(c1ccc(Cl)cc1)c1ccccn1` (centres unmarked) [chlorpheniramine], the anti-inflammatory effect (oral route, 6 mg/kg body weight) was “no anti-inflammatory effect”.
With `CC(=O)Oc1ccccc1C(=O)O` [acetylsalicylic acid] the “anti-inflammatory effect (reduces pow edema), mean value” (250 mg/kg body weight) was “approximately 22%”.
